According to patent US20130150399A1, “INHIBITORS OF THE UNFOLDED PROTEIN RESPONSE AND METHODS FOR THEIR USE” (The Board of Trustees of the Leland Stanford Junior …, priority 2006, published 2013):
Values joined by “and” are separate entries in the source; they are usually repeats but may differ in a detail not shown here. Equal values may be shown once.

Tests used:
XBP1-luciferase reporter = test: XBP-luciferase reporter high throughput screen / IRE IC50 (tunicamycin + thapsigargin induced); type: cell-based, human
Experimental: Specifically, HT1080 fibrosarcoma cells stably transfected with the unspliced XBP-1-luciferase reporter construct (3000/well) were plated onto a solid white 384 well microplate with a multidrop dispenser (40 μL per well). The plates were then placed into an automated incubator. After 24 hours of growth, a mixture of tunicamycin (1 μg/ml) and thapsigargin (100 nM) inducers were added, and candidate compounds were then added to the plates. After 24 hours, luciferase reagent (10 μl) was added to each well and the plates were read in a Molecular Devices Analyst GT (0.2 second read per well).
As described above in Example 2, HT1080 fibrosarcoma cells stably expressing the XBP-luciferase reporter were plated in a 384 well microplate (4000 cells/well). After 24 hours, cells were treated with a mixture of tunicamycin (4 μg/ml) and thapsigargin (0.4 μM), followed by the addition of one compound per well (10 μM). We screened a total of 66,000 diverse molecules obtained from Specs, Chembridge and ChemRX. Twenty-four hours post-induction, BriteGlo luciferase substrate (10 μl) was added to each well and the signal intensity determined in a plate reader (0.2 s read per well). […] We retested 431 compounds from the initial screen, and selected 58 compounds for additional analysis, including calculation of IC50 values and inhibition of a CMV-luciferase reporter.
Compounds of the screening library with structural similarity to compound 9389 (see Table 1) have been identified and in some cases further assayed for inhibitory activity. Compounds listed with “IC50” values were assayed secondarily after initially being identified in the high throughput screen. Each value represents a separate calculation of reporter inhibition based upon the high throughput robotic screening platform. The actual IC50 values are calculated and represent an estimate of the potency of each compound. This assay is not considered to be accurate below a concentration of 10 nM. Compounds classified with “mild” activity inhibited the XBP1-luciferase reporter by 10-30%. Compounds classified with “moderate” activity inhibited the XBP1-luciferase reporter by 30-75%. Compounds classified with “potent” activity inhibited the XBP1-luciferase reporter by 75-100%. Compounds classified with “undetected” activity inhibited the XBP1-luciferase reporter by less than 10% under the defined conditions.

[1] = tested on: PANC1 pancreatic adenocarcinoma cells; test: PANC1 tumor growth in vivo; set-up: species or system nude mice; conditions: 60 mg/kg ip bolus every 48 hours, 5 doses
Experimental: Dose: 60 mg/kg ip bolus injection every 48 hours. 5 total doses. 5-7 tumors per group. PANC1 pancreatic adenocarcinoma cell line.
PANC1 pancreatic adenocarcinoma cells were implanted subcutaneously into nude mice. Mice were then given a bolus injection of one of the inventive irestatins (1401, 9337, 3611 or 9389) at a dose of 60 mg/kg every 48 hours for a total of 5 doses, with 5-7 tumors being treated per group.

XBP-1 splicing = test: Bioluminescence imaging of XBP-1 splicing in HT1080 XBP-1s-luciferase tumors; type: in vivo; conditions: for toxicity: nude mice
Experimental: Several nude mice were implanted with HT1080 cells stably expressing a XBP-1s-luciferase construct and XBP-1 activation was examined using bioluminescence imaging. Imaging was performed using the In Vivo Imaging System (IVIS, Xenogen Corporation, Alameda, Calif.) in the Stanford Center for Innovation in In Vivo Imaging (SCI3). This device consists of a cooled CCD camera mounted on a light-tight specimen chamber.

Grp78 = test: Western immunoblot of Grp78, HT1080 cells; type: cell-based, human; conditions: Tm (5 μg/ml) for 8 hours, positive control
Experimental: Cells (2×10^6) were cultured in 10-cm dishes, collected using a cell scraper at 4° C., and lysed by addition of 150 μl cell lysis buffer [50 mM Tris pH 7.4, 150 mM NaCl, 10% glycerol, 0.5% Triton X-100. 0.5% NP-40, 2 mM Na3VO4, 20 mM beta-glycerophosphate, 10 mM NaF, 1 mM DTT, 1 mM PMSF). Lysates were centrifuged for 5 min at 10,000×g, and proteins (˜40 μg) were resolved by SDS-PAGE followed by semi-dry transfer to nitrocellulose membranes. Membranes were blocked in TBS-5% milk supplemented with 0.1% Tween-20. The blots were then probed overnight with relevant antibodies, washed, and incubated for 2 hours with species-specific secondary antibodies conjugated to horseradish peroxidase. After washing in block solution, immunoreactive material was detected by enhanced chemiluminescence (SuperSignal West Dura Extended, Pierce, Inc., Rockville, Ill.).
HT1080 cells were exposed to DMSO vehicle (lane 1), irestatin 9389 (2.5 μM; lane 2) for 16 hours or Tm (5 μg/ml; lane 3) for 8 hours. Following treatments, cells were harvested, lysed, and analyzed by immunoblotting using anti-Grp78 antibody (top) or anti-actin (bottom) as a loading control. […] Cell lysates were analyzed by Western immunoblotting using anti-IRE1α (bottom) or anti-phospho-IRE1α antibodies (top). […] Lysates were analyzed by Western blot using antisera specific for phospho-JNK1 (top) or total JNK1 (bottom). […]

XBP-luciferase reporter = XBP-luciferase reporter assay under Tm or hypoxia, HT1080 cells; type: cell-based, human; conditions: Tm alone, 24 hours
Experimental: (§1) HT1080 cells stably expressing the XBP-luciferase construct were grown in 60 mm dishes to 60-70% confluency. Following hypoxia treatment, cells were washed twice with PBS, lysed in 400 μl 1× reporter lysis buffer (RLB) (Promega, Madison Wis.) for 30 min at 24° C. Lysates (100 μl) were mixed with an equal volume of luciferase substrate (Promega), and assayed using a luminometer. For 5×-UPRE-luciferase reporter assays, cells were co-transfected with the appropriate reporter plasmid and a control plasmid (pSV40-beta-gal) using Lipofectamine 2000 (Invitrogen, San Diego, Calif.). Twenty-four hours after transfection, fresh media was added, and cells were treated with Tm or shifted to hypoxia. After treatment, cells were lysed in 1×RLB and analyzed for luciferase activity as described above. Beta-galactosidase activity was determined using the beta-galactosidase enzyme assay system (Promega).
A. XBP-luciferase reporter construct. Firefly luciferase was inserted downstream of the IRE1α splice site in human XBP-1 to enable the conditional translation of luciferase under ER stress in an IRE1α-dependent manner. B. Selective inhibition of the XBP-luciferase reporter by irestatin 9389. HT1080 human fibrosarcoma cells stably expressing the XBP-luciferase reporter or CMV-luciferase were cultured in the presence of Tm (4 μg/ml) and Tg (0.4 μM) and irestatin 9389 at the indicated concentrations. After 24 hours, luciferase activity was analyzed in an automated plate reader. For each cell line, values are expressed as the percent inhibition of the median for Tm/Tg-treated wells, corrected for background. C. Structure of irestatin 9389. D. XBP-luciferase reporter assay. HT1080 cells stably expressing the XBP-luciferase reporter were exposed to Tm (4 μg/ml) for 24 hours or hypoxia (0.1% oxygen) for 24 or 48 hours, in the presence of DMSO or irestatin 9389 (1 μM) as indicated. Values are expressed as the fold increases over uninduced levels. E. 5×-UPRE reporter assay. HT1080 cells were co-transfected with 5×-UPRE luciferase and SV40-beta-gal reporter plasmids, followed by exposure to Tm or hypoxia as in D. For each condition, luciferase activity is normalized to beta-galactosidase expression levels as an internal control for transfection efficiency. F. Western immunoblot analysis of XBP-1s. HT1080 cells were left untreated (lane 2) or exposed to Tm (4 μg/ml) for 20 hours in the presence of DMSO vehicle (lane 1) or the indicated irestatins (2 μM; lanes 3-6). […] Cells were harvested, lysed, and analyzed by immunoblotting with antisera specific for HIF-1α (top), XBP-1s (middle) or actin (bottom). […] Total RNA was analyzed by Northern blotting using radiolabeled probes specific for P58^IPK or DER-1. […]

[2] = tested on: 5×-UPRE luciferase reporter (XBP-1s); test: 5×-UPRE luciferase reporter assay, HT1080 cells; type: cell-based, human; conditions: Tm alone
Experimental: as §1
A. XBP-luciferase reporter construct. Firefly luciferase was inserted downstream of the IRE1α splice site in human XBP-1 to enable the conditional translation of luciferase under ER stress in an IRE1α-dependent manner. B. Selective inhibition of the XBP-luciferase reporter by irestatin 9389. HT1080 human fibrosarcoma cells stably expressing the XBP-luciferase reporter or CMV-luciferase were cultured in the presence of Tm (4 μg/ml) and Tg (0.4 μM) and irestatin 9389 at the indicated concentrations. After 24 hours, luciferase activity was analyzed in an automated plate reader. For each cell line, values are expressed as the percent inhibition of the median for Tm/Tg-treated wells, corrected for background. C. Structure of irestatin 9389. […] Values are expressed as the fold increases over uninduced levels. […] Cells were harvested, lysed, and analyzed by immunoblotting with antisera specific for HIF-1α (top), XBP-1s (middle) or actin (bottom). […] Total RNA was analyzed by Northern blotting using radiolabeled probes specific for P58^IPK or DER-1. […]
Since these assays employed a chimeric XBP-luciferase substrate, we next determined whether irestatin 9389 could inhibit the function of endogenous XBP-1s. […]

N#Cc1cccc(NC(=O)c2sc3nc4c(c(C(F)(F)F)c3c2N)CCC4)c1 [Compound 8878]
% Inh (XBP1-luciferase reporter; Assay IRE IC50, Conc 20 uM): 72.4% and 50.0%

Cc1cccc(NC(=O)c2sc3nc(C)cc(C(F)(F)F)c3c2N)n1 [Compound 2750]
% Inh (XBP1-luciferase reporter; Assay HTS, Conc 10 uM): 16.6%

CN1CCN(c2ccc3sc4ccccc4c(=O)c3c2)CC1 [Compound 1401]
tumor growth [1]: significant tumor growth was observed in untreated mice, but not in mice treated with the irestatins

Cc1cn2cc(-c3ccc4ccccc4c3)nc2s1 [Compound 9337]
tumor growth [1]: significant tumor growth was observed in untreated mice, but not in mice treated with the irestatins

Nc1ccc(-c2ccc(-c3ccc(N)cc3)c(N)c2)cc1 [Compound 3281]
toxicity (XBP-1 splicing; 50 mg/kg IP): no apparent toxicity | XBP-1 splicing activity (bioluminescence) (XBP-1 splicing; 50 mg/kg IP, 8 hrs after injection): undetectable | XBP-1 splicing (bioluminescence) (XBP-1 splicing; 8 hrs after a second injection): again inhibited

tunicamycin [Tm, reference compound]
Grp78 levels (Grp78): robustly induced Grp78 | increase of XBP-luciferase activity (XBP-luciferase reporter): 60 fold | increase of 5×-UPRE luciferase activity over untreated cells [2]: ~12 fold

Cc1csc(NC(=O)c2sc3nc4c(c(C(F)(F)F)c3c2N)CCCC4)n1 [Compound 4335]
% Inh (XBP1-luciferase reporter; Assay IRE IC50, Conc 20 uM): 70.4%

Cc1cc2nc(NC(=O)CCCC(=O)O)sc2cc1C [Compound 3611]
tumor growth [1]: significant tumor growth was observed in untreated mice, but not in mice treated with the irestatins

Cc1csc(NC(=O)c2sc3nc4c(c(C(F)(F)F)c3c2N)CCC4)n1 [Compound 5500]
% Inh (XBP1-luciferase reporter; Assay IRE IC50, Conc 20 uM): 104.4% | toxicity (XBP-1 splicing; 50 mg/kg IP): no apparent toxicity | effect on XBP-1 splicing (bioluminescence) (XBP-1 splicing; 50 mg/kg IP, at the time points assayed): did not have any affect on XBP-1 splicing
